Data from patent US20240336659A1, “CELL-PENETRATING PEPTIDE, ANTI-CANCER PEPTIDE, AND PHARMACEUTICAL COMPOSITION FOR PREVENTING OR TREATING CANCER, COMPRISING SAME” (ONECUREGEN CO., LTD., priority 2021, published 2024).
Positions of bridges follow the written chain, without caps; N, C: chain ends. No end group written: not given here.

Columns and labels:
MMP9 [1] = experiment: MMP9 immunohistochemical staining of extracted xenograft tumor tissue; type: in vivo; conditions: extracted NUGC3 xenograft tumor, 10 mg/kg once a day
Experimental: After completion of the in vivo xenograft experiment in Example 6-1, changes in the protein expression level of MMP9 were measured in the extracted tumor tissue using immunohistochemical staining and Western blot methods. The immunohistochemical staining was performed by the following method. The extracted tumor tissue was immobilized with 4% paraformaldehyde and embedded in paraffin, and then the tissue was sectioned at 4 μm thickness and attached to a glass slide. The tissue was hydrated with a xylene-ethanol reaction, and then reacted with an MMP9 antibody (1:100) at 4° C. overnight. The next day, the tissue sections were washed with PBS and reacted with a secondary antibody HRP-conjugated anti-rabbit antibody (1:100) at room temperature for 1 hour, and then the antibody was washed with PBS, and the reacted MMP9 was searched through the reaction by a DAB substrate kit (Vecotr Laboratories, #SK-4100). After DAB washing, nuclear staining was performed with a hematoxylin solution, and the tissue was emulsified through an ethanol-xylene reaction and then mounted. Tissue photographs were obtained using a Nikon TS2 microscope.

[2] = tested on: stomach cancer cell lines NUGC3; experiment: Mouse xenograft experiment (tumor formation); type: in vivo, Balb-c/nude mouse; conditions: intraperitoneally 10 mg/kg once a day
Experimental: A mouse xenograft experiment was performed to analyze a tumor formation inhibitory effect of cancer therapeutic peptide fragments. Specifically, 5×10^6 stomach cancer cell lines NUGC3 were transplanted by subcutaneous injection into a flank site of a 6-week-old female Balb-c/nude mouse, and after one week (average tumor size 100 mm^3), Vehicle (0.9% saline), OCP5 (SEQ ID NO: 12), OCP5-VGLL1S84-15C (SEQ ID NO: 29), or OCP5-VGLL1S84-7C (SEQ ID NO: 33) was each administered intraperitoneally at 10 mg/kg once a day. Tumor size was measured with a digital caliper at 2-day intervals from the start of drug administration, and the tumor size (tumor size (mm^3)=long axis x short axis2) was calculated. The experiment was terminated when the average tumor size of the OCP5-administered group was 1,000 mm3, and then the tumor was extracted, and the tumor weight was measured.

MMP9 [3] = experiment: MMP9 Western blot of extracted xenograft tumor tissue; type: in vivo; conditions: extracted NUGC3 xenograft tumor, 10 mg/kg once a day
Experimental: After completion of the in vivo xenograft experiment in Example 6-1, changes in the protein expression level of MMP9 were measured in the extracted tumor tissue using immunohistochemical staining and Western blot methods. In addition, the amount of MMP9 protein in the tumor tissue was analyzed by Western blot experiment. The protein amount in the sample was quantified using a BCA assay method, and 20 μg of each sample was loaded, electrophoresed on SDS-PAGE, and then transferred to a nitrocellulose membrane. The membrane was blocked in a 5% skim milk solution for 1 hour, and then placed in MMP9 (1:1000, Abcam #ab76003) or ACTB (1:10,000, SantaCruz #sc-47778) antibody solution and reacted overnight at 4° C. The next day, the primary antibody was removed, the membrane was washed with a TBST buffer, and a HRP-conjugated anti-mouse or anti-rabbit secondary antibody was diluted at 1:10,000 in the 5% skim milk solution, and then reacted with the membrane at room temperature for 1 hour. The blot reacted with a SuperSignalTM West Pico Chemiluminescent substrate (ThermoFisher #34580) and analyzed on the ChemiDoc XRS+ System (Bio-Rad Laboratories, #1708265).

[4] = tested on: breast cancer cell line MDA-MB-231; experiment: Cell growth inhibition (sulforhodamine B staining); type: cell-based; conditions: MDA-MB-231, 10 μM
Experimental: (§1) Specifically, in order to confirm cell growth ability, a stomach cancer cell line NUGC3 and a breast cancer cell line SK-BR-3 were each subcultured in a 96-well plate, and the next day, peptide fragments Con, 7, and CC of Table 2 were treated with 100 μM each to the cell lines. After 72 hours, the cells were immobilized with a 10% trichloroacetic acid solution, and then stained the cell with a 0.4% sulforhodamine B solution for 1 hour, washed with acetic acid, and dried. Thereafter, the dried cells were dissolved in a 10 mM Tris solution and absorbance was measured at 510 nm using an ELISA plate reader.
(§2) It was investigated whether the cancer therapeutic peptide synthesized in this study could be used to treat various cancers other than stomach cancer. For this purpose, the cancer therapeutic peptides OCP and OCP5-VGLLIS84-7C were treated in stomach cancer cell lines […] and AGS, lung cancer cell lines H460 and A549, pancreatic cancer cell lines AsPC-1 and MIAPaca-1, and breast cancer cell lines MCF7 and MDA-MB-231 at concentrations of 10 μM. Thereafter, as a result of analysis in the same manner as in Example 1, the growth inhibitory efficacy of OCP5-VGLLIS84-7C cancer cells was confirmed compared to the control OCP5 (FIG. 14).

[5] = tested on: lung cancer cell line A549; experiment: Cell growth inhibition (sulforhodamine B staining); type: cell-based; conditions: A549, 10 μM
Experimental: as §1, §2

[6] = tested on: breast cancer cell line MCF7; experiment: Cell growth inhibition (sulforhodamine B staining); type: cell-based; conditions: MCF7, 10 μM
Experimental: as §1, §2

[7] = tested on: stomach cancer cell line NUGC2; experiment: Cell growth inhibition (sulforhodamine B staining); type: cell-based; conditions: NUGC2, 10 μM
Experimental: as §1, §2

[8] = tested on: pancreatic cancer cell line MIAPaca-1; experiment: Cell growth inhibition (sulforhodamine B staining); type: cell-based; conditions: MIAPaca-1, 10 μM
Experimental: as §1, §2

[9] = tested on: lung cancer cell line H460; experiment: Cell growth inhibition (sulforhodamine B staining); type: cell-based; conditions: H460, 10 μM
Experimental: as §1, §2

[10] = tested on: pancreatic cancer cell line AsPC-1; experiment: Cell growth inhibition (sulforhodamine B staining); type: cell-based; conditions: AsPC-1, 10 μM
Experimental: as §1, §2

[11] = tested on: stomach cancer cell line NUGC3; experiment: Cell growth inhibition (sulforhodamine B staining); type: cell-based
Experimental: as §1
In order to compare the cancer cell growth inhibitory effects of cancer therapeutic peptides according to cell-penetrating peptides, the stomach cancer cell line NUGC3 was treated with 10 μM each of cancer therapeutic peptide fragments in Table 4, and the cancer cell growth inhibitory effects were screened in the same manner as in Example 1.
Specifically, in order to confirm the cancer cell inhibition enhancing effect by enhancing the cell permeability of OCP5 among the novel synthesized CPPs, a cancer therapeutic peptide fragment represented by SEQ ID NO: 6 including the existing TAT and a cancer therapeutic peptide fragment represented by SEQ ID NO: 31 including the novel synthesized OCP5 were used. The stomach cancer cell lines NUGC3 and AGS, the breast cancer cell line SK-BR-3, and the pancreatic cancer cell line Capan-1 were treated with 25 μM SEQ ID NO: 6 and 100 μM SEQ ID NO: 31 for 72 hours, respectively, and the cancer cell growth inhibitory effects were compared in the same manner as in Example 1. […] Through this, it was confirmed that the novel CPP may be applied more effectively than the existing TAT to inhibit the cancer cell growth by the anticancer peptides.
To analyze the cancer cell growth inhibitory effect according to a length of the anticancer peptide fragment, OCP9-VGLLIS84-7 (SEQ ID NO: 43), OCP9-VGLLIS84-9CC (SEQ ID NO: 46), and OCP9-VGLLIS84-15 (SEQ ID NO: 49) were treated for each concentration to analyze the growth inhibitory effects of stomach cancer cell lines NUGC3 and NCI-N87. When stomach cancer cells were treated with cancer therapeutic peptides, the cancer cell growth inhibitory efficacy was shown in a concentration-dependent manner. In addition, it was confirmed that the growth inhibitory effect on the stomach cancer cell lines increased as the length of the anticancer peptide fragment increased (FIG. 7).
Specifically, the cancer cell growth inhibitory effect according to partial or entire cyclization of the anticancer peptide fragment was analyzed. The stomach cancer cell line NUGC3 was treated with a CPP fragment OCP9 (SEQ ID NO: 16), a partially cyclized sequence […] (SEQ ID NO: 33), or a sequence OCP9-VGLLIS84-7CC (SEQ ID NO: 40) including an entirely cyclized anticancer peptide at different concentrations of 1, 2.5, 5, 10, and 20 μM, respectively, and the cancer cell growth inhibitory effects were compared in the same manner as in Example 1.

[12] = tested on: stomach cancer cell lines NUGC3; experiment: Wound healing assay (cancer cell migration); type: cell-based; conditions: 10 μM
Experimental: In order to analyze the possibility of metastasis inhibitory efficacy of stomach cancer cells by anticancer therapeutic peptides, a wound healing assay was performed to evaluate a migration inhibitory effect of stomach cancer cells. Specifically, 5×10^4 stomach cancer cell lines NUGC3 were subcultured in a 24-well plate, and then the next day, scratches were made at the center of the cells, and 10 μM OCP5-VGLL1S84-7C (SEQ ID NO: 33) was mixed into the cell culture medium and administered. Real-time cell images were acquired through Cytation5 (Biotek), and the degree of cancer cell migration was analyzed by calculating the average area (wound width, B) of the scratch area and the degree (% Confluence, C) to which cells were filled.

[13] = tested on: stomach cancer cell line AGS; experiment: Cell growth inhibition (sulforhodamine B staining); type: cell-based; conditions: 10 μM
Experimental: as §1
(§3) Specifically, in order to confirm the cancer cell inhibition enhancing effect by enhancing the cell permeability of OCP5 among the novel synthesized CPPs, a cancer therapeutic peptide fragment represented by SEQ ID NO: 6 including the existing TAT and a cancer therapeutic peptide fragment represented by SEQ ID NO: 31 including the novel synthesized OCP5 were used. The stomach cancer cell lines NUGC3 and AGS, the breast cancer cell line SK-BR-3, and the pancreatic cancer cell line Capan-1 were treated with 25 μM SEQ ID NO: 6 and 100 μM SEQ ID NO: 31 for 72 hours, respectively, and the cancer cell growth inhibitory effects were compared in the same manner as in Example 1. […]

[14] = tested on: breast cancer cell line SK-BR-3; experiment: Cell growth inhibition (sulforhodamine B staining); type: cell-based; conditions: SK-BR-3, 100 μM, 72 hours; compared with linear anticancer peptide (SEQ ID NO: 5)
Experimental: as §1, §3

Row | Substance | amount of MMP9 protein in the tumor (immunohistochemical staining) (MMP9 [1]) | tumor formation inhibitory effect compared to the vehicle group [2] [%] | amount of MMP9 in tumor tissues (Western blot) (MMP9 [3]) | growth inhibitory efficacy compared to the control OCP5 [4] | growth inhibitory efficacy compared to the control OCP5 [5] | growth inhibitory efficacy compared to the control OCP5 [6] | growth inhibitory efficacy compared to the control OCP5 [7] | growth inhibitory efficacy compared to the control OCP5 [8] | growth inhibitory efficacy compared to the control OCP5 [9] | growth inhibitory efficacy compared to the control OCP5 [10] | cancer cell growth inhibitory effect ([11]; NUGC3, 10 μM screening of Table 4 peptides) | migration of cancer cells (wound width, % Confluence) [12] | growth inhibitory efficacy compared to the control OCP5 [13] | cell growth inhibitory effect [14] | cell growth inhibitory effect ([11]; NUGC3, 100 μM, 72 hours, compared with linear anticancer peptide (SEQ ID NO: 5))
1 | SIIFRIFLHLQK-CPNQWRYSSPWTKPQPC-RRR (SIIFRIFLHLQKCPNQWRYSSPWTKPQPCRRR; disulfide 13-29) [OCP5-VGLL1S84-15C] | significantly reduced | 63 | reduced |  |  |  |  |  |  |  |  |  |  |  | 
2 | SIIFRIFLHLQK-CYSSPWTKC-RRR (SIIFRIFLHLQKCYSSPWTKCRRR; disulfide 13-21) [OCP5-VGLL1S84-7C] | significantly reduced | 45 | reduced | confirmed | confirmed | confirmed | confirmed | confirmed | confirmed | confirmed | significant cancer cell growth inhibitory effect | inhibited | confirmed |  | 
3 | YGRKKRRQRRR-CYSSPWTKC (YGRKKRRQRRRCYSSPWTKC; disulfide 12-20) [SEQ ID NO: 6, TAT-cyclic anticancer peptide] |  |  |  |  |  |  |  |  |  |  |  |  |  | significantly superior | significantly superior
